Experimental data published in ChEMBL document CHEMBL3044736, “Synthesis, characterization, solvatochromic properties, and antimicrobial evaluation of 5-acetyl-2-thioxo-dihydro-pyrimidine-4,6-dione-based chalcones” (2013).
In brackets after ≈: the same amount, converted by molar mass.

What was measured:
Format in all cases: functional
Pseudomonas aeruginosa [1] = test: Antimicrobial activity against Pseudomonas aeruginosa MTCC 1688 assessed as diameter of growth inhibition zone at 25 ug/ml after 18-24 hr by agar cup diffusion method; conditions: read-out: DIZ
Staphylococcus aureus [2] = test: Antimicrobial activity against Staphylococcus aureus MTCC 96 by agar cup diffusion method
Aspergillus clavatus [3] = test: Antimicrobial activity against Aspergillus clavatus MTCC 1323 assessed as diameter of growth inhibition zone at 250 ug/ml after 48-96 hr by agar cup diffusion method; conditions: read-out: DIZ
Pseudomonas aeruginosa [4] = test: Antimicrobial activity against Pseudomonas aeruginosa MTCC 1688 assessed as diameter of growth inhibition zone at 250 ug/ml after 18-24 hr by agar cup diffusion method; conditions: read-out: DIZ
Trichophyton rubrum [5] = test: Antimicrobial activity against Trichophyton rubrum MTCC 296 assessed as diameter of growth inhibition zone at 25 ug/ml after 48-96 hr by agar cup diffusion method; conditions: read-out: DIZ
Escherichia coli [6] = test: Antimicrobial activity against Escherichia coli MTCC 443 assessed as diameter of growth inhibition zone at 25 ug/ml after 18-24 hr by agar cup diffusion method; conditions: read-out: DIZ
Escherichia coli [7] = test: Antimicrobial activity against Escherichia coli MTCC 443 assessed as diameter of growth inhibition zone at 250 ug/ml after 18-24 hr by agar cup diffusion method; conditions: read-out: DIZ
Candida albicans [8] = test: Antimicrobial activity against Candida albicans MTCC 227 by agar cup diffusion method
Klebsiella pneumoniae [9] = test: Antimicrobial activity against Klebsiella pneumoniae MTCC 109 assessed as diameter of growth inhibition zone at 25 ug/ml after 18-24 hr by agar cup diffusion method; conditions: read-out: DIZ
Staphylococcus aureus [10] = test: Antimicrobial activity against Staphylococcus aureus MTCC 96 assessed as diameter of growth inhibition zone at 250 ug/ml after 18-24 hr by agar cup diffusion method; conditions: read-out: DIZ
Streptococcus pyogenes [11] = test: Antimicrobial activity against Streptococcus pyogenes MTCC 442 assessed as diameter of growth inhibition zone at 50 ug/ml after 18-24 hr by agar cup diffusion method; conditions: read-out: DIZ
Pseudomonas aeruginosa [12] = test: Antimicrobial activity against Pseudomonas aeruginosa MTCC 1688 by agar cup diffusion method
Klebsiella pneumoniae [13] = test: Antimicrobial activity against Klebsiella pneumoniae MTCC 109 assessed as diameter of growth inhibition zone at 250 ug/ml after 18-24 hr by agar cup diffusion method; conditions: read-out: DIZ
Aspergillus clavatus [14] = test: Antimicrobial activity against Aspergillus clavatus MTCC 1323 assessed as diameter of growth inhibition zone at 50 ug/ml after 48-96 hr by agar cup diffusion method; conditions: read-out: DIZ
Klebsiella pneumoniae [15] = test: Antimicrobial activity against Klebsiella pneumoniae MTCC 109 by agar cup diffusion method
Streptococcus pyogenes [16] = test: Antimicrobial activity against Streptococcus pyogenes MTCC 442 assessed as diameter of growth inhibition zone at 250 ug/ml after 18-24 hr by agar cup diffusion method; conditions: read-out: DIZ
Penicillium [17] = test: Antimicrobial activity against Penicillium wild strain assessed as diameter of growth inhibition zone at 100 ug/ml after 48-96 hr by agar cup diffusion method; conditions: read-out: DIZ
Penicillium [18] = test: Antimicrobial activity against Penicillium wild strain assessed as diameter of growth inhibition zone at 25 ug/ml after 48-96 hr by agar cup diffusion method; conditions: read-out: DIZ
Trichophyton rubrum [19] = test: Antimicrobial activity against Trichophyton rubrum MTCC 296 assessed as diameter of growth inhibition zone at 100 ug/ml after 48-96 hr by agar cup diffusion method; conditions: read-out: DIZ
Escherichia coli [20] = test: Antimicrobial activity against Escherichia coli MTCC 443 assessed as diameter of growth inhibition zone at 50 ug/ml after 18-24 hr by agar cup diffusion method; conditions: read-out: DIZ
Aspergillus clavatus [21] = test: Antimicrobial activity against Aspergillus clavatus MTCC 1323 assessed as diameter of growth inhibition zone at 25 ug/ml after 48-96 hr by agar cup diffusion method; conditions: read-out: DIZ
Penicillium [22] = test: Antimicrobial activity against Penicillium wild strain assessed as diameter of growth inhibition zone at 250 ug/ml after 48-96 hr by agar cup diffusion method; conditions: read-out: DIZ
Escherichia coli [23] = test: Antimicrobial activity against Escherichia coli MTCC 443 assessed as diameter of growth inhibition zone at 100 ug/ml after 18-24 hr by agar cup diffusion method; conditions: read-out: DIZ
Trichophyton rubrum [24] = test: Antimicrobial activity against Trichophyton rubrum MTCC 296 by agar cup diffusion method
Klebsiella pneumoniae [25] = test: Antimicrobial activity against Klebsiella pneumoniae MTCC 109 assessed as diameter of growth inhibition zone at 100 ug/ml after 18-24 hr by agar cup diffusion method; conditions: read-out: DIZ
Aspergillus clavatus [26] = test: Antimicrobial activity against Aspergillus clavatus MTCC 1323 assessed as diameter of growth inhibition zone at 100 ug/ml after 48-96 hr by agar cup diffusion method; conditions: read-out: DIZ
Staphylococcus aureus [27] = test: Antimicrobial activity against Staphylococcus aureus MTCC 96 assessed as diameter of growth inhibition zone at 100 ug/ml after 18-24 hr by agar cup diffusion method; conditions: read-out: DIZ
Streptococcus pyogenes [28] = test: Antimicrobial activity against Streptococcus pyogenes MTCC 442 assessed as diameter of growth inhibition zone at 100 ug/ml after 18-24 hr by agar cup diffusion method; conditions: read-out: DIZ
Trichophyton rubrum [29] = test: Antimicrobial activity against Trichophyton rubrum MTCC 296 assessed as diameter of growth inhibition zone at 250 ug/ml after 48-96 hr by agar cup diffusion method; conditions: read-out: DIZ
Candida albicans [30] = test: Antimicrobial activity against Candida albicans MTCC 227 assessed as diameter of growth inhibition zone at 100 ug/ml after 48-96 hr by agar cup diffusion method; conditions: read-out: DIZ
Aspergillus clavatus [31] = test: Antimicrobial activity against Aspergillus clavatus MTCC 1323 by agar cup diffusion method
Streptococcus pyogenes [32] = test: Antimicrobial activity against Streptococcus pyogenes MTCC 442 assessed as diameter of growth inhibition zone at 25 ug/ml after 18-24 hr by agar cup diffusion method; conditions: read-out: DIZ
Staphylococcus aureus [33] = test: Antimicrobial activity against Staphylococcus aureus MTCC 96 assessed as diameter of growth inhibition zone at 25 ug/ml after 18-24 hr by agar cup diffusion method; conditions: read-out: DIZ
Candida albicans [34] = test: Antimicrobial activity against Candida albicans MTCC 227 assessed as diameter of growth inhibition zone at 250 ug/ml after 48-96 hr by agar cup diffusion method; conditions: read-out: DIZ
Pseudomonas aeruginosa [35] = test: Antimicrobial activity against Pseudomonas aeruginosa MTCC 1688 assessed as diameter of growth inhibition zone at 100 ug/ml after 18-24 hr by agar cup diffusion method; conditions: read-out: DIZ
Penicillium [36] = test: Antimicrobial activity against Penicillium wild strain by agar cup diffusion method
Trichophyton rubrum [37] = test: Antimicrobial activity against Trichophyton rubrum MTCC 296 assessed as diameter of growth inhibition zone at 50 ug/ml after 48-96 hr by agar cup diffusion method; conditions: read-out: DIZ
Klebsiella pneumoniae [38] = test: Antimicrobial activity against Klebsiella pneumoniae MTCC 109 assessed as diameter of growth inhibition zone at 50 ug/ml after 18-24 hr by agar cup diffusion method; conditions: read-out: DIZ
Pseudomonas aeruginosa [39] = test: Antimicrobial activity against Pseudomonas aeruginosa MTCC 1688 assessed as diameter of growth inhibition zone at 50 ug/ml after 18-24 hr by agar cup diffusion method; conditions: read-out: DIZ
Escherichia coli [40] = test: Antimicrobial activity against Escherichia coli MTCC 443 by agar cup diffusion method
Candida albicans [41] = test: Antimicrobial activity against Candida albicans MTCC 227 assessed as diameter of growth inhibition zone at 25 ug/ml after 48-96 hr by agar cup diffusion method; conditions: read-out: DIZ
Streptococcus pyogenes [42] = test: Antimicrobial activity against Streptococcus pyogenes MTCC 442 by agar cup diffusion method
Candida albicans [43] = test: Antimicrobial activity against Candida albicans MTCC 227 assessed as diameter of growth inhibition zone at 50 ug/ml after 48-96 hr by agar cup diffusion method; conditions: read-out: DIZ
Staphylococcus aureus [44] = test: Antimicrobial activity against Staphylococcus aureus MTCC 96 assessed as diameter of growth inhibition zone at 50 ug/ml after 18-24 hr by agar cup diffusion method; conditions: read-out: DIZ
Penicillium [45] = test: Antimicrobial activity against Penicillium wild strain assessed as diameter of growth inhibition zone at 50 ug/ml after 48-96 hr by agar cup diffusion method; conditions: read-out: DIZ

Q: What does the source list for `COc1ccc(/C=C/C(=O)C2C(=O)NC(=S)NC2=O)cc1`?
A: zone of inhibition at 25 µg/mL (Pseudomonas aeruginosa [1]): 13 mm; MBC (Staphylococcus aureus [2]): 250 µg/mL (≈ 821 µM); MIC (Staphylococcus aureus [2]): 200 µg/mL (≈ 657 µM); zone of inhibition at 250 µg/mL (Aspergillus clavatus [3]): 24 mm; zone of inhibition at 250 µg/mL (Pseudomonas aeruginosa [4]): 21 mm; zone of inhibition at 25 µg/mL (Trichophyton rubrum [5]): 19 mm; zone of inhibition at 25 µg/mL (Escherichia coli [6]): 15 mm; zone of inhibition at 250 µg/mL (Escherichia coli [7]): 21 mm; MFC (Candida albicans [8]): 1000 µg/mL (≈ 3290 µM); MIC (Candida albicans [8]): > 1000 µg/mL; zone of inhibition at 25 µg/mL (Klebsiella pneumoniae [9]): 11 mm; zone of inhibition at 250 µg/mL (Staphylococcus aureus [10]): 21 mm; zone of inhibition at 50 µg/mL (Streptococcus pyogenes [11]): 18 mm; MBC (Pseudomonas aeruginosa [12]): 125 µg/mL (≈ 411 µM); MIC (Pseudomonas aeruginosa [12]): 100 µg/mL (≈ 329 µM); zone of inhibition at 250 µg/mL (Klebsiella pneumoniae [13]): 17 mm; zone of inhibition at 50 µg/mL (Aspergillus clavatus [14]): 21 mm; MBC (Klebsiella pneumoniae [15]): 250 µg/mL (≈ 821 µM); MIC (Klebsiella pneumoniae [15]): 200 µg/mL (≈ 657 µM); zone of inhibition at 250 µg/mL (Streptococcus pyogenes [16]): 21 mm; zone of inhibition at 100 µg/mL (Penicillium [17]): 23 mm; zone of inhibition at 25 µg/mL (Penicillium [18]): 21 mm; zone of inhibition at 100 µg/mL (Trichophyton rubrum [19]): 21 mm; zone of inhibition at 50 µg/mL (Escherichia coli [20]): 18 mm; zone of inhibition at 25 µg/mL (Aspergillus clavatus [21]): 20 mm; zone of inhibition at 250 µg/mL (Penicillium [22]): 25 mm; zone of inhibition at 100 µg/mL (Escherichia coli [23]): 20 mm; MFC (Trichophyton rubrum [24]): > 1000 µg/mL; MIC (Trichophyton rubrum [24]): > 1000 µg/mL; zone of inhibition at 100 µg/mL (Klebsiella pneumoniae [25]): 14 mm; zone of inhibition at 100 µg/mL (Aspergillus clavatus [26]): 23 mm; zone of inhibition at 100 µg/mL (Staphylococcus aureus [27]): 18 mm; zone of inhibition at 100 µg/mL (Streptococcus pyogenes [28]): 20 mm; zone of inhibition at 250 µg/mL (Trichophyton rubrum [29]): 22 mm; zone of inhibition at 100 µg/mL (Candida albicans [30]): 24 mm; MFC (Aspergillus clavatus [31]): 1000 µg/mL (≈ 3290 µM); MIC (Aspergillus clavatus [31]): 500 µg/mL (≈ 1640 µM); zone of inhibition at 25 µg/mL (Streptococcus pyogenes [32]): 15 mm; zone of inhibition at 25 µg/mL (Staphylococcus aureus [33]): 13 mm; zone of inhibition at 250 µg/mL (Candida albicans [34]): 24 mm; zone of inhibition at 100 µg/mL (Pseudomonas aeruginosa [35]): 18 mm; MFC (Penicillium [36]): 500 µg/mL (≈ 1640 µM); MIC (Penicillium [36]): 500 µg/mL (≈ 1640 µM); zone of inhibition at 50 µg/mL (Trichophyton rubrum [37]): 20 mm; zone of inhibition at 50 µg/mL (Klebsiella pneumoniae [38]): 13 mm; zone of inhibition at 50 µg/mL (Pseudomonas aeruginosa [39]): 17 mm; MBC (Escherichia coli [40]): 250 µg/mL (≈ 821 µM); MIC (Escherichia coli [40]): 200 µg/mL (≈ 657 µM); zone of inhibition at 25 µg/mL (Candida albicans [41]): 18 mm; MBC (Streptococcus pyogenes [42]): 250 µg/mL (≈ 821 µM); MIC (Streptococcus pyogenes [42]): 200 µg/mL (≈ 657 µM); zone of inhibition at 50 µg/mL (Candida albicans [43]): 21 mm; zone of inhibition at 50 µg/mL (Staphylococcus aureus [44]): 17 mm; zone of inhibition at 50 µg/mL (Penicillium [45]): 21 mm
